# Measured values taken from patent US20240327764A1, “Manufacturing a Distilled Spirit Based Functional Ingredient” (priority 2022, published 2024).
# Assays:
# MAO B = biological target: T1, MAO B (Homo sapiens, UniProt P27338); assay: MAO B inhibitory activity assay (% inhibition); type: biochemical; settings: terpene added at 0.5% (v/v) to Don Julio Añejo (40% ABV) versus 40% ethanol
# T1 sequence (P27338 1-520): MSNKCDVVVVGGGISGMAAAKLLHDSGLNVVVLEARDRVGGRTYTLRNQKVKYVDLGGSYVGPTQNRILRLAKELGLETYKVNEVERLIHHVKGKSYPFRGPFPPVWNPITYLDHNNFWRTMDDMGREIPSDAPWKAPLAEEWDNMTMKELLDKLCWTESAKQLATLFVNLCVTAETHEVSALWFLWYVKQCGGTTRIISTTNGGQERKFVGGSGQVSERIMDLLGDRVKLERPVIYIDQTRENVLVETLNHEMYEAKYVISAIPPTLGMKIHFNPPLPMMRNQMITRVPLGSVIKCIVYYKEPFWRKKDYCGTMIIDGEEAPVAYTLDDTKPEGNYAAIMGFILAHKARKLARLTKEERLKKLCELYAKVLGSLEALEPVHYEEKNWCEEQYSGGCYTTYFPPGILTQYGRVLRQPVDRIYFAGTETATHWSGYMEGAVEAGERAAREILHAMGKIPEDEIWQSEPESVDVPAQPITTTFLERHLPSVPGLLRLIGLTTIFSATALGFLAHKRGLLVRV
# Text: (§1) U.S. […] The contents of this document are incorporated herein by reference, but briefly, methods that include reverse osmosis and low-pressure evaporation to provide retentates with significant concentrations of these inhibitors are described. In addition, details of assay methods for monoamine oxidase activity (and therefore inhibition thereof) and for ethanol content are provided.
# MAO A = biological target: T2, MAO A (Homo sapiens, UniProt P21397); assay: MAO A inhibitory activity assay (% inhibition); type: biochemical; settings: terpene added at 0.5% (v/v) to Don Julio Añejo (40% ABV) versus 40% ethanol
# T2 sequence (P21397 1-527): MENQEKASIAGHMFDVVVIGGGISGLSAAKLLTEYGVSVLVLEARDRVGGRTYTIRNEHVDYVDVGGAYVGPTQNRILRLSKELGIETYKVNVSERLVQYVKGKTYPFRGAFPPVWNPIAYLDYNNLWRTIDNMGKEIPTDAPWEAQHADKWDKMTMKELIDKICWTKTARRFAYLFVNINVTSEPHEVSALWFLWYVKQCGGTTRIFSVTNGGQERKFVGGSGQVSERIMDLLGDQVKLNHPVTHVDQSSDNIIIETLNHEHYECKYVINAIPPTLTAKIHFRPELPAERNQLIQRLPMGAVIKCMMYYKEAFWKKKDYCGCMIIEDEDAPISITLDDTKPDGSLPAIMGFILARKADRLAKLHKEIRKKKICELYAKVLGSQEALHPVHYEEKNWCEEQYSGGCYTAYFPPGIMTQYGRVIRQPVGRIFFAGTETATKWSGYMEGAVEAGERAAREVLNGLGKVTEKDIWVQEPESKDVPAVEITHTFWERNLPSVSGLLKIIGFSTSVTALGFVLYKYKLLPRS
# Text: as §1
smiles,measurement,setting,value
C=C(C)[C@@H]1CCC2=CCC[C@@H](C)[C@]2(C)C1 [valencene],Δ % Inhibition MAO B (DJA + terpene) − (ETOH + terpene),MAO B,20%
same,Δ % Inhibition MAO A (DJA + terpene) − (ETOH + terpene),MAO A,9%
